Where two headings read alike, the source gives them in different places.
Legend:
[1] = target: T1, rho transcription termination factor (Escherichia coli, UniProt P0AG30); assay: Rho poly(C)-dependent ATPase assay, inhibition by metal chelates and bicyclomycin; assay type: biochemical, E. coli; parameters: made in house; host or cells: E. coli strain AR120 with plasmid p39-ASE; settings: (DL)DTT 0.1-0.3 mM alone or equimolar with metal chloride, in presence of MgCl2
Method: Rho poly(C)-dependent ATPase assay.
The reactions were analyzed as described above.

[2] = target: T1, rho transcription termination factor; settings: for IC50: read-out: I50, rho poly(C)-dependent ATP hydrolysis; for rho inhibition at 4000 μM: 4000 μM metal
Method: Rho poly(C)-dependent ATPase assay. See, generally, Sharp et al., (1983) A kinetic mechanism for the poly(C)-dependent ATPase of the Escherichia coli transcription termination protein, rho, J. Biol. Chem. 258, 3482-3486. The ribonucleotide-stimulated ATPase activity of rho at 32° C. was assayed by the amount of ^32P-labeled inorganic phosphate hydrolyzed from ATP after separation on PEI-TLC plates (prerun with water and dried) using 0.75 M potassium phosphate (pH 3.5) as the mobile phase. Reactions were initiated by adding ATP (varying concentrations) and 0.5 μCi [γ-^32P] ATP to the solution containing 40 mM Tris-HCl (pH 7.9), 50 mM KCl, 100 nM or 250 nM poly(C), 100 or 250 nM rho (monomer) and MgCl2 (1 mM or 10 mM). The TLC plates were exposed to PhosphorImager plates (Fuji and Molecular Dynamics) (3 h), scanned on a Storm 860 PC PhosphorImager and analyzed using Molecular Dynamic's ImageQuant 5.0. The initial rates of the reactions were determined by plotting the amount of ATP hydrolyzed against time. Each reaction was performed in duplicate and the results averaged.
B. Divalent Metal Activation of Rho in the Presence of MgCl2. To provide additional information concerning the roles of divalent metals in rho activation, the poly(C)-dependent assays were repeated in the presence of 10 mM MgCl2 and varying concentrations (10, 20, 40, 80, 125, 160, 250, 320, 500, 640 μM) of the divalent metals.

[3] = target: T1, rho transcription termination factor; settings: for Vmax(app) / % activity (Vmax or Vpeak) / % efficiency (Vmax/KM or Vpeak/KM) / Vpeak(app): Mg^2+-free; for Vmax(app) / Vpeak(app): from activation curves; for % activity (Vmax or Vpeak) / % efficiency (Vmax/KM or Vpeak/KM): relative to Mg^2+; for metal activation profile: absence of MgCl2, 1.9-4000 μM metal; for n (Hill): nonlinear regression of velocity curves; for effect on rho poly(C)-dependent ATP hydrolysis in the absence of MgCl2: (DL)DTT-free buffer; for peak velocity / total metal concentration at peak velocity: absence of MgCl2, FIG. 8
Method: Rho poly(C)-dependent ATPase assay. […] The ribonucleotide-stimulated ATPase activity of rho at 32° C. was assayed by the amount of ^32P-labeled inorganic phosphate hydrolyzed from ATP after separation on PEI-TLC plates (prerun with water and dried) using 0.75 M potassium phosphate (pH 3.5) as the mobile phase. Reactions were initiated by adding ATP (varying concentrations) and 0.5 μCi [γ-^32P] ATP to the solution containing 40 mM Tris-HCl (pH 7.9), 50 mM KCl, 100 nM or 250 nM poly(C), 100 or 250 nM rho (monomer) and MgCl2 (1 mM or 10 mM). The TLC plates were exposed to PhosphorImager plates (Fuji and Molecular Dynamics) (3 h), scanned on a Storm 860 PC PhosphorImager and analyzed using Molecular Dynamic's ImageQuant 5.0. The initial rates of the reactions were determined by plotting the amount of ATP hydrolyzed against time. Each reaction was performed in duplicate and the results averaged.
A. Divalent Metal Activation of Rho in the Absence of MgCl2. […] For each metal, wild-type rho was pretreated with 20 mM EDTA to deplete the protein of residual metals and removed the excess EDTA and the metal•EDTA complex by a spin column.

[4] = target: T1, rho transcription termination factor; parameters: made in house; host or cells: E. coli strain AR120 with plasmid p39-ASE; settings: poly(dC)-ribo(C)10 ATPase assay, literature (Magyar 1996); cited from earlier work
E. coli RecA = E. coli RecA (Escherichia coli, UniProt P0A7G6); assay: RecA poly(dT)-dependent ATP hydrolysis; assay type: biochemical; settings: bicyclomycin 0-400 μM; Zn-(L)DTT equimolar
Method: The validity of some of these new leads has been questioned, and attention is now focused on determining the inhibition pathway for these compounds and whether the inhibitors show enzyme specificity. McGovern et al., (2001) A common mechanism underlying promiscuous inhibitors from virtual and high-throughput screening, J. Med. Chem. 45, 1712-1722. Compounds that show nonspecific interaction have been defined as “promiscuous inhibitors.” The inhibitor specificity of Zn-(L)DTT complexes was tested. […] Next, the time dependency for chelate inhibition was examined because a well-behaved, reversible inhibitor is typically not affected by incubation time. McGovern et al., (2001). […] The effect of Zn-(L)DTT solutions on E. coli RecA poly (dT)-dependent ATP hydrolysis was determined.
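Throughout, for % activity (Vmax or Vpeak): Poly(C)-dependent ATP hydrolysis by wild-type rho with other divalent metals in place of magnesium, radiolabeled ATP at varied levels, TLC phosphorimaging, initial rates from hydrolyzed ATP versus time.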
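Throughout, for % efficiency (Vmax/KM or Vpeak/KM): Poly(C)-dependent ATP hydrolysis by wild-type rho with other divalent metals in place of magnesium, radiolabeled ATP at varied levels, TLC phosphorimaging, initial rates from hydrolyzed ATP versus time.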
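Throughout, for Vmax(app): Poly(C)-dependent ATP hydrolysis by wild-type rho with other divalent metals in place of magnesium, radiolabeled ATP at varied levels, TLC phosphorimaging, initial rates from hydrolyzed ATP versus time.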
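Throughout, for metal activation profile: Poly(C)-dependent ATP hydrolysis by wild-type rho with other divalent metals in place of magnesium, radiolabeled ATP at varied levels, TLC phosphorimaging, initial rates from hydrolyzed ATP versus time.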

T1 sequence (P0AG30 whole entry): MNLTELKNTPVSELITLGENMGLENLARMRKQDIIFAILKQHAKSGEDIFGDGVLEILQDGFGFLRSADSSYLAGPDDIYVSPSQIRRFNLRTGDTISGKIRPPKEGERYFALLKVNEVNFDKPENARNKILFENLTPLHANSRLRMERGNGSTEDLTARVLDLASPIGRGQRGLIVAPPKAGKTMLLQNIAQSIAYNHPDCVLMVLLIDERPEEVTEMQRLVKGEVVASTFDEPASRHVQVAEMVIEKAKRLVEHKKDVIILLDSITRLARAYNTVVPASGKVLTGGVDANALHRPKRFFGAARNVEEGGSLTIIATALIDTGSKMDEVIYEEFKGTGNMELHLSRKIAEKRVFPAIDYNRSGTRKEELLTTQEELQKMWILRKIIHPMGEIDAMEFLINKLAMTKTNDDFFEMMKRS
Sequence of E. coli RecA (P0A7G6 2-353): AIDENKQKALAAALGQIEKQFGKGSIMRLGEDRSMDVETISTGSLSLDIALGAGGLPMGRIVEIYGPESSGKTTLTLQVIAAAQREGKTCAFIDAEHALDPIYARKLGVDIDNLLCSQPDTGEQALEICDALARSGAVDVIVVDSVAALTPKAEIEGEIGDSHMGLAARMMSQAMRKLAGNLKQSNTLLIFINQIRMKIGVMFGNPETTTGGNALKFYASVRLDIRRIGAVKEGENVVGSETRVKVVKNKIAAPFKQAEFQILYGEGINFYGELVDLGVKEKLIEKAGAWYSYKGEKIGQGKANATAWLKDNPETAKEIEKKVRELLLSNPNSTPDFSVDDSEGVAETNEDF

Row | SMILES | effect on ATP hydrolysis rate in the presence of MgCl2 ([2]; 10 mM MgCl2) | Vmax(app) [3] [mol/min/mg] | % activity (Vmax or Vpeak) [3] [%] | metal activation profile [3] | % efficiency (Vmax/KM or Vpeak/KM) [3] [%] | n (Hill) [3] | other results
1 | OC(CS)C(O)CS (racemic) [(DL)DTT, dithiothreitol] |  |  |  |  |  |  | effect on rho poly(C)-dependent ATP hydrolysis [1]: did not inactivate the enzyme
2 | [Be+2].[Cl-].[Cl-] [Be^2+] | inhibited | 0.21 | 2 | did not catalyze ATP hydrolysis |  |  | activity at 100 μM ([2]; 100 μM BeCl2, 10 mM MgCl2): almost complete loss of activity; IC50 ([2]; 10 mM MgCl2): 63 µM
3 | [Ca+2] [Ca^2+] | negligible effects | 3.13 | 25 | Michaelis-Menten kinetics | 74 | 1 | 
4 | [Cd+2] [Cd^2+] | negligible effects |  | 39 | peak velocities | 20 | 4.6 | effect on rho poly(C)-dependent ATP hydrolysis in the absence of MgCl2 [3]: activated; Vpeak(app) [3]: 4.74 mol/min/mg; peak velocity [3]: 4.8 µmol/min/mg; total metal concentration at peak velocity [3]: 65 µM
5 | [Co+2] [Co^2+] | negligible effects | 7.65 | 62 | Michaelis-Menten kinetics | 61 | 1 | 
6 | [Cu+2] [Cu^2+] | inhibited | 1.54 | 13 | Michaelis-Menten kinetics | 39 | 1 | loss of activity ([2]; 10 mM MgCl2): ~30%
7 | [Hg+2] [Hg^2+] | inhibited | 0.78 | 6 | Michaelis-Menten kinetics | 29 | 1 | rho inhibition at 4000 μM ([2]; 10 mM MgCl2): ~50%
8 | [Mg+2] [Mg^2+] |  | 12.3 | 100 | Michaelis-Menten kinetics | 100 | 1 | efficiency (Vmax/KM or Vpeak/KM) relative to Co^2+ [3]: 1.5 times
9 | [Cl][Mn][Cl] [Mn^2+] |  |  | 97 | peak velocities | 89 | 1 | efficiency (Vmax/KM or Vpeak/KM) relative to Co^2+ [3]: 1.6 times; % of maximum activity at 4000 μM ([3]; 4000 μM total metal): 10%; effect on rho poly(C)-dependent ATP hydrolysis in the absence of MgCl2 [3]: activated; Vpeak(app) [3]: 11.9 mol/min/mg; peak velocity [3]: 11.9 µmol/min/mg; total metal concentration at peak velocity [3]: 250 µM
10 | [Cl][Ni][Cl] [Ni^2+] | negligible effects | 4.79 | 39 | sigmoidal activation pattern | 29 | 2.9 | effect on rho poly(C)-dependent ATP hydrolysis in the absence of MgCl2 [3]: activated
11 | [Sr+2] [Sr^2+] | negligible effects | 0.17 | 1 | did not catalyze ATP hydrolysis |  | 1 | 
12 | [O]=[V+2] [VO^2+] | negligible effects | 0.78 | 6 | Michaelis-Menten kinetics |  | 1 | 
13 | [Cl-].[Cl-].[Zn+2] [Zn^2+] | inhibited |  | 81 | peak velocities | 51 | 5.5 | rho inhibition at 4000 μM ([2]; 10 mM MgCl2): ~50%; change of I50 on 10-fold poly(C) ([2]; poly(C) concentration increased 10-fold): increased only slightly; IC50 ([2]; 1 mM MgCl2, estimated): 190 µM; IC50 ([2]; 10 mM MgCl2): 4000 µM; activity remaining at 190 μM total metal ([3]; 190 μM [Zn^2+]total): 50%; velocity at 1000 μM total metal ([3]; 1000 μM [Zn^2+]total): zero; effect on rho poly(C)-dependent ATP hydrolysis in the absence of MgCl2 [3]: activated; Vpeak(app) [3]: 9.98 mol/min/mg; peak velocity [3]: 9.4 µmol/min/mg; total metal concentration at peak velocity [3]: 125 µM; IC50 ([3]; read-out: I50, rho poly(C)-dependent ATP hydrolysis, 0 mM MgCl2, estimated): 190 µM
14 | C=C1CCO[C@]2([C@@H](O)[C@@](C)(O)CO)NC(=O)[C@@]1(O)NC2=O [bicyclomycin, Bicyclomycin] |  |  |  |  |  |  | inhibition kinetics with respect to ribo(C)10 [4]: mixed inhibition pattern; effect on RecA poly(dT)-dependent ATP hydrolysis (E. coli RecA): no loss in RecA ATPase activity

Source: patent US20060128681A1, “Novel rho inhibitors” (priority 2002, published 2006)
